# Laboratory results as given in patent US20100323990A1, “SHIP 1 MODULATOR PRODRUGS” (THE UNIVERSITY OF BRITISH COLUMBIA, priority 2006, published 2010).
# Key:
# SHIP C2 domain [1] = experiment: Protein lipid overlay assay, C2 domain binding to PI-3,4-P2; details: 4 μM Compound 100, 30 min at 23° C.
# Protocol: Protein lipid overlay (PLO) assays were performed essentially as described with minor modifications. Lyophilized phosphatidylinositol-3,4-bisphosphate diC16 (PIP2, Echelon Biosciences, Salt Lake City, Utah) was reconstituted in a 2:1.8 solution of methanol and water. PVDF membranes (Millipore, Missisauga, Ont) were initially wetted in methanol for 1 minute, and washed 3×5 min with water, and gently agitated in TBST buffer (20 mM Tris pH 7.5, 0.15 M NaCl (TBS) with 0.05% Tween 20) at 23° C. overnight. Treated membranes were air-dried and dilutions of reconstituted lipids were spotted in 1 μl aliquots to give the indicated amount of PIP2 per membrane spot. Membranes were dried completely and blocked with blocking buffer (3% BSA in TBS with 0.05% NaN3) for 1 h at 23° C. Purified, recombinant C2 domain was diluted into blocking buffer (5 μM final) and treated with 4 μM Compound 100 or EtOH control for 30 min at 23° C. prior to overnight incubation with the PIP2 spotted membranes. […] After washing, bound proteins were detected and quantified on a Li-Cor Odyssey scanner (Lincoln, Nebr.).
# Isolated recombinant, His6-tagged C2 domain was expressed and its PI-3,4-P2 binding ability was determined using protein lipid overlay assays. Purified C2 domain was incubated with membrane strips spotted with PI-3,4-P2 and bound protein detected using an anti-His6 antibody. […]
# SHIP C2 domain [2] = experiment: Scintillation proximity assay, C2 domain; assay type: binding; details: C2 domain 10 nM on SPA beads
# Protocol: Compound 100 was radiolabelled with tritium by GE Healthcare (Piscataway, N.J.) to a specific activity of 42 Ci/mmole. Copper chelate (His-Tag) YSi SPA Scintillation Beads (GE ealthcare, Piscataway, N.J.) were diluted in 0.25% BSA/TBS to 1.5 mg/mL and recombinant, His6-tagged protein added at the indicated concentrations: wild-type (1 pM), ΔC2 SHIP enzyme (1 pM) or C2 domain (10 nM). Protein was allowed to bind 1 h at 23° C., and 250 μg of beads were aliquoted per well of a 96-well plate. 5 μCi of [^3H]-Compound 100 was added per well, the plate gently agitated for 30 min and the amount of bead associated radioactivity quantified by counting in a Wallac BetaPlate plate scintillation counter.
# Isolated recombinant, His6-tagged C2 domain was expressed and its PI-3,4-P2 binding ability was determined using protein lipid overlay assays. Purified C2 domain was incubated with membrane strips spotted with PI-3,4-P2 and bound protein detected using an anti-His6 antibody. As shown in FIG. 11C the C2 domain bound PI-3,4-P2 and this binding was inhibited by Compound 100, consistent with both Compound 100 and PI-3,4-P2 interacting with the C2 domain at a common binding site.
# [3] = system: SHIP−/− bone marrow derived macrophages; experiment: LPS-stimulated TNFα production in SHIP−/− bone marrow derived macrophages; assay type: cell-based, mice; details: SHIP−/− cells, 15 μM, 10 ng/mL LPS 2 h
# Protocol: Bone marrow cells were aspirated from 4 to 8 week old C57B16×129Sv mixed background mice and SHIP^+/+ and SHIP^−/− mast cells prepared as described previously. Bone marrow derived macrophages from SHIP^+/+ and SHIP^−/− mice were obtained and maintained in IMDM supplemented with 10% FCS, 150 μM MTG, 2% C127 cell conditioned medium as a source of macrophage colony stimulating factor (M-CSF) (macrophage medium)
# LPS stimulation of macrophages. For the analysis of LPS-stimulated TNFα production, 2×10^5 cells were plated the night before in 24 well plates in macrophage medium. The next day, the medium was changed and AQX-016A or carrier was added to cells at the indicated concentrations for 30 min prior to the addition of 10 ng/mL LPS. Supernatants were collected for TNFα determination by ELISA (BD Biosciences, Mississauga, ON, Canada). For analysis of intracellular signaling, 2×10^6 cells were plated the night before in 6 cm tissue culture plates. […] Calcium influx was monitored by spectrofluorometry. […] Total cell lysates were then prepared and analyzed for phospho-PKB, phospho-p38^MAPK, phospho-MAPK, Grb-2 (Cell Signalling, Mississauga, Ont) and SHIP^6 by immunoblot analysis.
# The target specificity and biological efficacy of AQX-016A were assessed by comparing AQX-016A's effects on PI3K-regulated processes in primary SHIP^+/+ vs SHIP^−/− macrophages and mast cells. […]
"binding of C2 domain to PI-3,4-P2 (SHIP C2 domain [1])",binding of [3H]-Compound 100 to C2 domain (SHIP C2 domain [2]),SMILES,suppression of TNFα production [3]
inhibited,directly bind the C2 domain,Cc1cc(O)cc2c1[C@]1(C)CCC3C(C)(C)CCC[C@]3(C)[C@H]1C2 (stereo partly drawn) [Compound 100],–
–,–,Cc1cc(O)c(O)c2c1[C@]1(C)CCC3C(C)(C)CCC[C@]3(C)[C@H]1C2 (stereo partly drawn) [AQX-016A],15%
